Results from article PMC9695908, “Potent Activation of Human but Not Mouse TRPA1 by JT010” (International Journal of Molecular Sciences, 2022).

Molecular target: T1, human TRPA1 (hTRPA1) (Homo sapiens, UniProt O75762)
T1 construct: wild-type hTRPA1 in HEK cells
Assay: Fura-2 Ca2+ imaging and whole-cell patch clamp in HEK-hTRPA1 cells; C621S and F669M mutants reduce response
Type: cell-based

T1 sequence (O75762 whole entry): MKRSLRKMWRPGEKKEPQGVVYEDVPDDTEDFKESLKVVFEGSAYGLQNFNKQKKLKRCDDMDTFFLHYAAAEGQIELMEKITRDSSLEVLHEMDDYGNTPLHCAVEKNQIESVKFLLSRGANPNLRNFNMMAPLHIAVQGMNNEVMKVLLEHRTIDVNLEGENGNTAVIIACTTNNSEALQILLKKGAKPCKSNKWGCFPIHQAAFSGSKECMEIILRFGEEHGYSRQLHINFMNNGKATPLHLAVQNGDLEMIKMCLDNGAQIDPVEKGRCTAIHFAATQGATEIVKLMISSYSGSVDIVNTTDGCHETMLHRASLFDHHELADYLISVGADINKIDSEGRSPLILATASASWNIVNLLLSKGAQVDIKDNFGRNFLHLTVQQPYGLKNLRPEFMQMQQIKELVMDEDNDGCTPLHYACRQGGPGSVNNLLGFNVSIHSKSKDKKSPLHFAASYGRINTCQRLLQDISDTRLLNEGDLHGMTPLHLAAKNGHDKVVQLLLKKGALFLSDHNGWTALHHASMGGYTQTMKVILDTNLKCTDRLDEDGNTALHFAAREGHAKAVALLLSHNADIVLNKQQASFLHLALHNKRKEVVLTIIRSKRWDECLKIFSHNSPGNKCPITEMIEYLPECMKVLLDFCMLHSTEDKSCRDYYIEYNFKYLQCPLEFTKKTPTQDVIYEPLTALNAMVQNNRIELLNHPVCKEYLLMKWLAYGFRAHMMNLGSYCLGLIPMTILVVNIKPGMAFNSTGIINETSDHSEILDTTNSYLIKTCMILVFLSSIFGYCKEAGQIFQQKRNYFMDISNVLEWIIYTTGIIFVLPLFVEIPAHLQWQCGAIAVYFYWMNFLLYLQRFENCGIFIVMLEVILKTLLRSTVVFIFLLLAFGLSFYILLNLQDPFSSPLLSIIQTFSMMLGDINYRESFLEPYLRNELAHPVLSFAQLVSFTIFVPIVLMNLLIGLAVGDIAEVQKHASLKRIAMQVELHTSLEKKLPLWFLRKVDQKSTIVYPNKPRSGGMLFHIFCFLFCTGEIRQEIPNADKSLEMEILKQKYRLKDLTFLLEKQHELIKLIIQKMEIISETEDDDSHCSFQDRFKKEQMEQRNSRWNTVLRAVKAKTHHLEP

Question: For `COCCCN(C(=O)CCl)c1nc(-c2ccc(OC)cc2)cs1` [JT010], which EC50 is on record?
Answer: ~0.01 µM
